From EP4755888A1 (ILAb Co., Ltd., priority 2023, dated 2025)
Like-named read-outs stand apart in the source and are kept apart here.

What was measured:
PD-1/PD-L1 [1] = molecular target: PD-1/PD-L1 (Homo sapiens, UniProt Q9NZQ7); test: TR-FRET PD-1/PD-L1 binding inhibition at the molecular level (free proteins)
How it was run: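 HTRF read-out at 665/620 nm after 2 h at room temperature. Detection used anti-Tag1 Eu cryptate plus anti-Tag2 XL665 antibodies. Tagged PD-L1 and PD-1 proteins were pre-mixed with compound across twelve […] 1:2 dilutions starting at 200 nM.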

[2] = molecular target: T1, PD-L1 expressed on the cell surface (MC38 hPD-L1) (Homo sapiens, UniProt Q9NZQ7); test: Internalization of cell surface PD-L1, flow cytometry with fluorescent staining; format: cell-based; conditions: MC38 hPD-L1 cells, 1 µM, 4 hours; untreated 90% to 99%
T1 construct: expressed in transfected cells; host or cells: MC38 mouse colon cancer cell line expressing human PD-L1
T1 sequence (Q9NZQ7 19-290): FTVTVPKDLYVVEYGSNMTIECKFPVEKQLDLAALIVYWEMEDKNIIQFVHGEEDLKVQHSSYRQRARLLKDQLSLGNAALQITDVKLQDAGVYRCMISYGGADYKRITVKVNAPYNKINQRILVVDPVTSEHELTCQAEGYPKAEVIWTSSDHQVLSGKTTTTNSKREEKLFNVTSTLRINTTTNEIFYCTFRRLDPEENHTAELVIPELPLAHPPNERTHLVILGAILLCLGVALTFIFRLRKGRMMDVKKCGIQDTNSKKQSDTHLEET
Procedure: In order to evaluate the internalization of cell surface PD-L1 induced by the compounds of the present invention synthesized according to the above Preparation Examples, a flow cytometry experiment using fluorescent staining was conducted as described below.
Specifically, a mouse colon cancer cell line expressing human PD-L1 (MC38 hPD-L1) was seeded into a 24-well plate at a density of 5 x 10^5 cells per well, followed by treatment with Compounds 206 to 227 at a concentration of 1 µM and incubation for 4 hours. After 4 hours, the compound-treated MC38 hPD-L1 cells were collected and stained with PE anti-hPD-L1 fluorecence at room temperature for 30 minutes. The rate of PD-L1 expression on the cell surface was then quantified using flow cytometry.

PD-1/PD-L1 [3] = test: PD-1/PD-L1 blockade bioassay at the cellular level (PD-L1 aAPC/CHO-K1 cells + PD-1 Effector T cells, luciferase); format: cell-based; conditions: Homo sapiens, T-cell; PD-L1 aAPC/CHO-K1 cells with PD-1 Effector T cells, 6 hours, luminescence; read-out: PD-1/PD-L1 Inhibitory Activity EC50
Procedure: In order to evaluate the effect of the compounds of the present invention, synthesized according to the above Preparation Examples, on blocking signal transduction between PD-1/PD-L1-expressing cells, a PD-1/PD-L1 blockade bioassay was conducted as described below.
Specifically, PD-L1 aAPC/CHO-K1 cells engineered to express human PD-L1 were seeded into a 96-well white plate and cultured for one day. On the following day, the compounds were prepared in a 96-well plate by serial dilution at concentrations starting from 10 µM and 5 µM, followed by 1/4 dilutions to obtain a total of ten concentrations. The culture medium in the plate seeded with the PD-L1 aAPC/CHO-K1 cell line was removed, and 40 µL of each prepared compound solution was added to a 96-well plate. Thereafter, 40 µL of PD-1 Effector T cell line engineered to express human PD-1 was additionally added, and then cultured for 6 hours. After 6 hours, 80 µL of Bio-Glo luciferase buffer was added to each well, followed by incubation at room temperature for 10 minutes, and luminescence was measured using a microplate reader.

hPD-L1 = hPD-L1 (Homo sapiens, UniProt Q9NZQ7); test: TR-FRET dimerization of hPD-L1 molecules; format: biochemical; conditions: for EC50: Fc tag-hPD-L1 and His tag-hPD-L1, twelve concentrations from 10 µM; for induction of dimerization of hPD-L1 molecules (in words): summary of Table 3
Sequence of hPD-L1 (Q9NZQ7 19-238 limits assumed): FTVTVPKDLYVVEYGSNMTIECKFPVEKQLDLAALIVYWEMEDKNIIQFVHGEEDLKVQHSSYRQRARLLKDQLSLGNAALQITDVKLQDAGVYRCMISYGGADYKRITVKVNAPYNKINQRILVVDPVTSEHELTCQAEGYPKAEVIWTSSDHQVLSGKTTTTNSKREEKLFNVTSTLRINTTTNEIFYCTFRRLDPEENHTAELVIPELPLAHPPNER
Sequence of hPD-L1 (Q9NZQ7 19-238 limits assumed): as above
Procedure: In order to evaluate the dimerization of hPD-L1 molecules induced by the compounds of the present invention synthesized according to the above Preparation Examples, a TR-FRET (Time-Resolved Fluorescence Energy Transfer) experiment was performed as described below.
Specifically, the compounds were prepared in a 96-well plate by serial dilution starting from 10 µM with 1/3 dilutions to obtain a total of twelve concentrations. Thereafter, 2 µL of each compound solution was added to a 384-well plate. Fc tag-hPD-L1 protein and His tag-hPD-L1 protein were each prepared at a 1x concentration, mixed at a ratio of 1:1 of above two proteins, and 8 µL of the mixed protein solution was added to each well of the 384-well plate containing the compounds, followed by incubation at room temperature for one day. On the following day, Anti-6His-Tb Cryptate Gold antibody and Anti-human IgG-XL665 antibody were each prepared at a 1x concentration, mixed at a ratio of 1:1, and 10 µL of the mixed antibody solution was added to each well of the 384-well plate containing the compounds and proteins, followed by incubation at room temperature for 2 hours. Upon completion of the reaction, fluorescence signals at wavelengths of 620 nm and 665 nm were measured using a microplate reader.

[4] = Tag1-PD-L1 and Tag2-PD-1 proteins, twelve concentrations from 200 nM, 2 hours at room temperature, read-out: FRET assay (IC50)

Sequence of PD-1/PD-L1 (Homo sapiens, UniProt Q9NZQ7) (Q9NZQ7 19-238 limits assumed): as above

## Cc1c(NC(=O)c2ccc(CN3CC[C@@H](O)C3)cn2)cccc1-c1cccc(NC(=O)c2cc3n(n2)CCC[C@@H]3N2CC[C@@H](O)C2)c1C [Compound 216, (S)-4-((R)-3-hydroxypyrrolidin-1-yl)-N-(3'-(5-(((R)-3-hydroxypyrrolidin-1-yl)methyl)picolinamido)-2,2'-dimethyl-[1,1'-biphenyl]-3-yl)-4,5,6,7-tetrahydropyrazolo[1,5-a]pyridine-2-carboxamide]
PD-1/PD-L1 [1]; [4]
  IC50: < 10 nM
[2]
  Cell surface PD-L1 expression level (%): 3.0%
PD-1/PD-L1 [3]
  EC50: 31.6 nM
hPD-L1
  EC50: 25.2 nM
  induction of dimerization of hPD-L1 molecules (in words): effectively induced dimerization of hPD-L1 molecules at the nanomolar level

## O=C(O)CN[C@H]1CCCn2nc(C(=O)Nc3cccc(-c4cccc(NC(=O)c5ccc(CNCCO)cn5)c4Cl)c3Cl)cc21 [Compound 220, (S)-2-((2-((2,2'-dichloro-3'-(5-(((2-hydroxyethyl)amino)methyl)picolinamido)-[1,1'-biphenyl]-3-yl)carbamoyl)-4,5,6,7-tetrahydropyrazolo[1,5-a]pyridin-4-yl)amino)acetic acid]
PD-1/PD-L1 [1]; [4]
  IC50: < 10 nM
[2]
  Cell surface PD-L1 expression level (%): 0.6%
PD-1/PD-L1 [3]
  EC50: 13.6 nM

## Cc1c(NC(=O)c2cc3n(n2)CCC[C@@H]3NCC(=O)O)cccc1-c1cccc(Nc2nc(C(F)F)nc3cc(CN4CC[C@@H](O)C4)cnc23)c1C [Compound 212, 2-(((S)-2-((3'-((2-(difluoromethyl)-7-(((R)-3-hydroxypyrrolidin-1-yl)methyl)pyrido[3,2-d]pyrimidin-4-yl)amino)-2,2'-dimethyl-[1,1'-biphenyl]-3-yl)carbamoyl)-4,5,6,7-tetrahydropyrazolo[1,5-a]pyridin-4-yl)amino)acetic acid]
PD-1/PD-L1 [1]; [4]
  IC50: < 10 nM
[2]
  Cell surface PD-L1 expression level (%): 22.1%
PD-1/PD-L1 [3]
  EC50: 32.3 nM

## Cc1c(NC(=O)c2ccc(CN3CC[C@@H](O)C3)cn2)cccc1-c1cccc(NC(=O)c2cc3n(n2)CCC[C@H]3N2CC[C@@H](O)C2)c1C [Compound 217]
PD-1/PD-L1 [1]; read-out: FRET assay (IC50), Tag1-PD-L1 and Tag2-PD-1 proteins, twelve concentrations from 200 nM, 2 hours at room temperature
  IC50: < 10 nM
[2]
  Cell surface PD-L1 expression level (%): 82.8%
PD-1/PD-L1 [3]
  EC50: 251 nM

## Cc1c(NC(=O)c2ccc(CN3CC[C@@H](O)C3)cn2)cccc1-c1cccc(NC(=O)c2cc3n(n2)CCC[C@@H]3NCCO)c1C [Compound 214, (S)-4-((2-hydroxyethyl)amino)-N-(3'-(5-(((R)-3-hydroxypyrrolidin-1-yl)methyl)picolinamido)-2,2'-dimethyl-[1,1'-biphenyl]-3-yl)-4,5,6,7-tetrahydropyrazolo[1,5-a]pyridine-2-carboxamide]
PD-1/PD-L1 [1]; [4]
  IC50: < 10 nM
[2]
  Cell surface PD-L1 expression level (%): 5.7%
PD-1/PD-L1 [3]
  EC50: 40.1 nM

## Cc1c(NC(=O)c2cc3n(n2)CCC[C@@H]3N2CC[C@@H](C(=O)O)C2)cccc1-c1cccc(Nc2nc(C(F)F)nc3cc(CN4CC[C@@H](O)C4)cnc23)c1C [Compound 210, (R)-1-((S)-2-((3'-((2-(difluoromethyl)-7-(((R)-3-hydroxypyrrolidin-1-yl)methyl)pyrido[3,2-d]pyrimidin-4-yl)amino)-2,2'-dimethyl-[1,1'-biphenyl]-3-yl)carbamoyl)-4,5,6,7-tetrahydropyrazolo[1,5-a]pyridin-4-yl)pyrrolidine-3-carboxylic acid]
PD-1/PD-L1 [1]; [4]
  IC50: < 10 nM
[2]
  Cell surface PD-L1 expression level (%): 3.2%
PD-1/PD-L1 [3]
  EC50: 16 nM

## O=C(Nc1cccc(-c2cccc(NC(=O)c3cc4n(n3)CCC[C@@H]4NCCO)c2Cl)c1Cl)c1ccc(CNCCO)cn1 [Compound 206, (S)-N-(2,2'-dichloro-3'-(5-(((2-hydroxyethyl)amino)methyl)picolinamido)-[1,1'-biphenyl]-3-yl)-4-((2-hydroxyethyl)amino)-4,5,6,7-tetrahydropyrazolo[1,5-a]pyridine-2-carboxamide]
PD-1/PD-L1 [1]; [4]
  IC50: < 10 nM
[2]
  Cell surface PD-L1 expression level (%): 0.9%
PD-1/PD-L1 [3]
  EC50: 15.7 nM

## O=C(O)CN[C@H]1CCCn2nc(C(=O)Nc3cccc(-c4cccc(NC(=O)c5ccc(CN6CC[C@@H](O)C6)cn5)c4Cl)c3Cl)cc21 [Compound 222, 2-(((S)-2-((2,2'-dichloro-3'-(5-(((R)-3-hydroxypyrrolidin-1-yl)methyl)picolinamido)-[1,1'-biphenyl]-3-yl)carbamoyl)-4,5,6,7-tetrahydropyrazolo[1,5-a]pyridin-4-yl)amino)acetic acid]
PD-1/PD-L1 [1]; [4]
  IC50: < 10 nM
[2]
  Cell surface PD-L1 expression level (%): 0.3%
PD-1/PD-L1 [3]
  EC50: 34.8 nM

## O=C(Nc1cccc(-c2cccc(NC(=O)c3cc4n(n3)CCC[C@H]4NCCO)c2Cl)c1Cl)c1ccc(CNCCO)cn1 [Compound 207, (R)-N-(2,2'-dichloro-3'-(5-(((2-hydroxyethyl)amino)methyl)picolinamido)-[1,1'-biphenyl]-3-yl)-4-((2-hydroxyethyl)amino)-4,5,6,7-tetrahydropyrazolo[1,5-a]pyridine-2-carboxamide]
PD-1/PD-L1 [1]; [4]
  IC50: < 10 nM
[2]
  Cell surface PD-L1 expression level (%): 77.5%
PD-1/PD-L1 [3]
  EC50: 85.8 nM

## O=C(Nc1cccc(-c2cccc(NC(=O)c3cc4n(n3)CCC[C@@H]4N3CC[C@@H](C(=O)O)C3)c2Cl)c1Cl)c1ccc(CNCCO)cn1 [Compound 208, (R)-1-((S)-2-((2,2'-dichloro-3'-(5-(((2-hydroxyethyl)amino)methyl)picolinamido)-[1,1'-biphenyl]-3-yl)carbamoyl)-4,5,6,7-tetrahydropyrazolo[1,5-a]pyridin-4-yl)pyrrolidine-3-carboxylic acid]
PD-1/PD-L1 [1]; [4]
  IC50: < 10 nM
[2]
  Cell surface PD-L1 expression level (%): 0.5%
PD-1/PD-L1 [3]
  EC50: 12.6 nM

## O=C(Nc1cccc(-c2cccc(Nc3nccc4cc(CN5CC[C@H](O)C5)cnc34)c2Cl)c1Cl)c1cc2n(n1)CCC[C@H]2N1CCC(C(=O)O)CC1 [Compound 227, 1-((R)-2-((2,2'-dichloro-3'-((3-(((S)-3-hydroxypyrrolidin-1-yl)methyl)-1,7-naphthyridin-8-yl)amino)-[1,1'-biphenyl]-3-yl)carbamoyl)-4,5,6,7-tetrahydropyrazolo[1,5-a]pyridin-4-yl)piperidine-4-carboxylic acid]
PD-1/PD-L1 [1]; [4]
  IC50: 10 to 100 nM
[2]
  Cell surface PD-L1 expression level (%): 1.6%
PD-1/PD-L1 [3]
  EC50: 20.2 nM
hPD-L1
  EC50: 26.2 nM
  induction of dimerization of hPD-L1 molecules (in words): effectively induced dimerization of hPD-L1 molecules at the nanomolar level
